Non-standard residues stand in square brackets, D forms with d. Residues, ends and D or L forms follow the SMILES beside them. *: point of attachment. Acetyl(1-adamantyl) = O=C(CC12CC3CC(CC(C3)C1)C2)*; Dansyl = CN(C)c1cccc2c(S(=O)(=O)*)cccc12; NH((S)CH(Me)CH2NMe2) = C[C@@H](CN(C)C)N*; dGly(nOct) = CCCCCCCC[C@@H](N)C(=O)O; Gly(octyl) = CCCCCCCC[C@H](N)C(=O)O; Lauroyl = CCCCCCCCCCCC(=O)*; Hexanoyl = CCCCCC(=O)*; X1 = CN(C)C1CCC(N*)CC1; Aib = CC(C)(N)C(=O)O; Ms = CS(=O)(=O)*; βAla = NCCC(=O)O

Data set [1] has as its system Trypanosoma cruzi trypomastigote forms (Tulahuen strain). The experiment in a line: Intracellular Trypanosoma cruzi assay in L6-cells, beta-galactosidase/CPRG readout. The note with it: In vitro inhibition, read-out: T.cruzi. Format: cell-based. In short, it runs like this: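 Readout was β-galactosidase cleavage of CPRG, read photometrically at 540 nm after 2–6 h colour development, giving IC50 values. Parasites: LacZ-expressing Tulahuen C2C4 strain grown in rat L6 myoblasts; run in triplicate.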

Data set [2] concerns intracellular Leishmania donovani (L.don. InMac). Put plainly: Intracellular Leishmania donovani assay (L.don. InMac). The data set is classed as cell-based. The note with it: In vitro inhibition. The text has this: (§1) Tests were done in triplicate.
Data set [3] is described as follows: Cytotoxicity assay on L6-cells (Alamar Blue). The note with it: rat, Cytotox L6, Cytotoxicity against rat myoblast cells (L6). Background: Alamar Blue is a resazurin reagent that responds to reducing activity.
The subject of data set [4] is Plasmodium falciparum. The experiment in a line: 3H-hypoxanthine incorporation assay against Plasmodium falciparum. The note with it: In vitro inhibition, read-out: P.falc NF5. The data set is classed as cell-based. How it is done:
as §1
IC50 values were calculated by linear interpolation.

Data set [5] concerns Trypanosoma brucei rhodesiense (STIB 900 strain). Put plainly: Alamar Blue assay against Trypanosoma brucei rhodesiense grown in axenic medium. The data set is classed as cell-based. The note with it: In vitro inhibition, read-out: T.b.rhod. In a few lines:
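Alamar Blue-based IC50 determination, in triplicate, on axenically grown STIB 900 trypanosomes. Melarsoprol included as reference.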

For data set [6], the system named is Axenically grown Leishmania donovani amastigotes (strain MHOM/ET/67/L82). The experiment in a line: Axenic Leishmania donovani amastigote resazurin assay. The note with it: In vitro inhibition, read-out: L.don. ax. Format: cell-based. In short, it runs like this: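 IC50 values derive from resazurin fluorescence (ex 536 nm, em 588 nm), expressed relative to the negative control, after 2-4 hours of plate development. Axenic amastigotes of strain MHOM/ET/67/L82 were used; each test run in triplicate.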

For `CCCCCCCCCCCC(=O)N1CCC[C@H]1C(=O)N[C@@H](CCCCCCCC)C(=O)N[C@@H](CC(C)C)C(=O)NC(C)(C)C(=O)N[C@@H](CC(C)C)C(=O)N[C@@H](CC(C)C)C(=O)NC(C)(C)C(=O)NC(C)(C)C(=O)NCCC(=O)N[C@@H](C)CN(C)C` [Compound 5651, (2S)-N-[(1S)-1-[(1-{[(1S)-1-{[(1S)-1-{[1-({1-[(2-{[(2S)-1-(dimethylamino)propan-2-yl]carbamoyl}ethyl)carbamoyl]-1-methylethyl}carbamoyl)-1-methylethyl]carbamoyl}-3-methylbutyl]carbamoyl}-3-methylbutyl]carbamoyl}-1-methylethyl)carbamoyl]-3-methylbutyl]-2-{[(2S)-1-dodecanoylpyrrolidin-2-yl]formamido}decanamide] (Lauroyl-P[Gly(octyl)]L[Aib]LL[Aib][Aib][βAla]-{NH((S)CH(Me)CH2NMe2)}), the IC50 in data set [1] stood at 1370 nM; in data set [2], 707 nM; in data set [4], 0.8 nM; in data set [5], 3.3 nM; in data set [6], 53 nM. Further, the IC50 at 70 h in data set [3] was found to be 498 nM.

With `CCCCCCCC[C@H](NC(=O)[C@@H]1CCCN1S(C)(=O)=O)C(=O)N[C@@H](CC(C)C)C(=O)NC(C)(C)C(=O)N[C@@H](CC(C)C)C(=O)N[C@@H](CC(C)C)C(=O)NC(C)(C)C(=O)NC(C)(C)C(=O)NCCC(=O)N[C@@H](C)CN(C)C` [Compound 5652, (2S)-N-[(1S)-1-[(1-{[(1S)-1-{[(1S)-1-{[1-({1-[(2-{[(2S)-1-(dimethylamino)propan-2-yl]carbamoyl}ethyl)carbamoyl]-1-methylethyl}carbamoyl)-1-methylethyl]carbamoyl}-3-methylbutyl]carbamoyl}-3-methylbutyl]carbamoyl}-1-methylethyl)carbamoyl]-3-methylbutyl]-2-{[(2S)-1-methanesulfonylpyrrolidin-2-yl]formamido}decanamide] (Ms-P[Gly(octyl)]L[Aib]LL[Aib][Aib][βAla]-{NH((S)CH(Me)CH2NMe2)}), the IC50 in data set [1] stood at 436 nM; in data set [2], 166 nM; in data set [4], 4.6 nM; in data set [5] it was 4 nM; in data set [6], 8.1 nM. In data set [3], this molecule came in with an IC50 at 70 h of 1410 nM.

On to `CCCCCCCC[C@H](NC(=O)[C@@H]1CCCN1S(=O)(=O)c1cccc2c(N(C)C)cccc12)C(=O)N[C@@H](CC(C)C)C(=O)NC(C)(C)C(=O)N[C@@H](CC(C)C)C(=O)N[C@@H](CC(C)C)C(=O)NC(C)(C)C(=O)NC(C)(C)C(=O)NCCC(=O)N[C@@H](C)CN(C)C` [Compound 5765, (2S)-2-{[(2S)-1-{[5-(dimethylamino)naphthalen-1-yl]sulfonyl}pyrrolidin-2-yl]formamido}-N-[(1S)-1-[(1-{[(1S)-1-{[(1S)-1-{[1-({1-[(2-{[(2S)-1-(dimethylamino)propan-2-yl]carbamoyl}ethyl)carbamoyl]-1-methylethyl}carbamoyl)-1-methylethyl]carbamoyl}-3-methylbutyl]carbamoyl}-3-methylbutyl]carbamoyl}-1-methylethyl)carbamoyl]-3-methylbutyl]decanamide] (Dansyl-P[Gly(octyl)]L[Aib]LL[Aib][Aib][βAla]-{NH((S)CH(Me)CH2NMe2)}), for which the IC50 in data set [1] turned out to be 126 nM; in data set [2], 203 nM; in data set [4], 1 nM; in data set [5] it was 1.6 nM; in data set [6], 4.3 nM. Besides, the IC50 at 70 h in data set [3] was found to be 250 nM.

Take `CCCCCCCC[C@H](NC(=O)[C@@H]1CCCN1C(=O)CC12CC3CC(CC(C3)C1)C2)C(=O)N[C@@H](CC(C)C)C(=O)NC(C)(C)C(=O)N[C@@H](CC(C)C)C(=O)N[C@@H](CC(C)C)C(=O)NC(C)(C)C(=O)NC(C)(C)C(=O)NCCC(=O)N[C@@H](C)CN(C)C` [Compound 5771, (2S)-2-{[(2S)-1-[2-(adamantan-1-yl)acetyl]pyrrolidin-2-yl]formamido}-N-[(1S)-1-[(1-{[(1S)-1-{[(1S)-1-{[1-({1-[(2-{[(2S)-1-(dimethylamino)propan-2-yl]carbamoyl}ethyl)carbamoyl]-1-methylethyl}carbamoyl)-1-methylethyl]carbamoyl}-3-methylbutyl]carbamoyl}-3-methylbutyl]carbamoyl}-1-methylethyl)carbamoyl]-3-methylbutyl]decanamide] ({Acetyl(1-adamantyl)}-P[Gly(octyl)]L[Aib]LL[Aib][Aib][βAla]-{NH((S)CH(Me)CH2NMe2)}): the IC50 in data set [1] came to 42.1 nM; in data set [2], 58.6 nM; in data set [4], 0.8 nM; in data set [5] it was 6.9 nM; in data set [6] it was 0.8 nM. In addition, the IC50 at 70 h in data set [3] turned out to be 113 nM.

Regarding `CCCCCCCC[C@@H](NC(=O)[C@H]1CCCN1C(=O)CCCCC)C(=O)N[C@H](CC(C)C)C(=O)NC(C)(C)C(=O)N[C@H](CC(C)C)C(=O)N[C@H](CC(C)C)C(=O)NC(C)(C)C(=O)NC(C)(C)C(=O)NCCC(=O)N[C@@H](C)CN(C)C` [Compound 5849, (2R)-N-[(1R)-1-[(1-{[(1R)-1-{[(1R)-1-{[1-({1-[(2-{[(2S)-1-(dimethylamino)propan-2-yl]carbamoyl}ethyl)carbamoyl]-1-methylethyl}carbamoyl)-1-methylethyl]carbamoyl}-3-methylbutyl]carbamoyl}-3-methylbutyl]carbamoyl}-1-methylethyl)carbamoyl]-3-methylbutyl]-2-{[(2R)-1-hexanoylpyrrolidin-2-yl]formamido}decanamide] (Hexanoyl-[dP][dGly(nOct)][dL][Aib][dL][dL][Aib][Aib][βAla]-{NH((S)CH(Me)CH2NMe2)}), the IC50 was found to be 257 nM in data set [1]; 67.1 nM in data set [2]; 7.5 nM in data set [4]; 55.6 nM in data set [5]; 3.5 nM in data set [6]. Moreover, the IC50 at 70 h in data set [3] was 1070 nM.

Turning to `CCCCCCCC[C@H](NC(=O)[C@@H]1CCCN1C(=O)CCCCC)C(=O)N[C@@H](CC(C)C)C(=O)NC(C)(C)C(=O)N[C@H](CC(C)C)C(=O)N[C@H](CC(C)C)C(=O)NC(C)(C)C(=O)NC(C)(C)C(=O)NCCC(=O)N[C@@H](C)CN(C)C` [Compound 5850, (2S)-N-[(1S)-1-[(1-{[(1R)-1-{[(1R)-1-{[1-({1-[(2-{[(2S)-1-(dimethylamino)propan-2-yl]carbamoyl}ethyl)carbamoyl]-1-methylethyl}carbamoyl)-1-methylethyl]carbamoyl}-3-methylbutyl]carbamoyl}-3-methylbutyl]carbamoyl}-1-methylethyl)carbamoyl]-3-methylbutyl]-2-{[(2S)-1-hexanoylpyrrolidin-2-yl]formamido}decanamide] (Hexanoyl-P[Gly(octyl)]L[Aib][dL][dL][Aib][Aib][βAla]-{NH((S)CH(Me)CH2NMe2)}), the IC50 in data set [1] turned out to be 319 nM; in data set [2], 71.5 nM; in data set [4], 0.9 nM; in data set [5] it was 18.5 nM; in data set [6], 8.8 nM. Further, the IC50 at 70 h in data set [3] is 820 nM.

Turning to `CCCCCCCC[C@@H](NC(=O)[C@H]1CCCN1C(=O)CCCCC)C(=O)N[C@H](CC(C)C)C(=O)NC(C)(C)C(=O)N[C@@H](CC(C)C)C(=O)N[C@@H](CC(C)C)C(=O)NC(C)(C)C(=O)NC(C)(C)C(=O)NCCC(=O)N[C@@H](C)CN(C)C` [Compound 5851, (2R)-N-[(1R)-1-[(1-{[(1S)-1-{[(1S)-1-{[1-({1-[(2-{[(2S)-1-(dimethylamino)propan-2-yl]carbamoyl}ethyl)carbamoyl]-1-methylethyl}carbamoyl)-1-methylethyl]carbamoyl}-3-methylbutyl]carbamoyl}-3-methylbutyl]carbamoyl}-1-methylethyl)carbamoyl]-3-methylbutyl]-2-{[(2R)-1-hexanoylpyrrolidin-2-yl]formamido}decanamide] (Hexanoyl-[dP][dGly(nOct)][dL][Aib]LL[Aib][Aib][βAla]-{NH((S)CH(Me)CH2NMe2)}), the IC50 in data set [1] came out at 1130 nM; in data set [2] it was 241 nM; in data set [4], 51.7 nM; in data set [5], 165 nM; in data set [6], 144 nM. Further, the IC50 at 70 h in data set [3] was found to be 1210 nM.

As for `CCCCCCCC[C@H](NC(=O)[C@@H]1CCCN1C(=O)CCCCC)C(=O)N[C@@H](CC(C)C)C(=O)NC(C)(C)C(=O)N[C@@H](CC(C)C)C(=O)N[C@@H](CC(C)C)C(=O)NC(C)(C)C(=O)NC(C)(C)C(=O)NCCC(=O)NC1CCC(N(C)C)CC1` (stereo partly drawn) [Compound 5881, (2S)-N-[(1S)-1-[(1-{[(1S)-1-{[(1S)-1-{[1-({1-[(2-{[4-(dimethylamino)cyclohexyl]carbamoyl}ethyl)carbamoyl]-1-methylethyl}carbamoyl)-1-methylethyl]carbamoyl}-3-methylbutyl]carbamoyl}-3-methylbutyl]carbamoyl}-1-methylethyl)carbamoyl]-3-methylbutyl]-2-{[(2S)-1-hexanoylpyrrolidin-2-yl]formamido}decanamide] (Hexanoyl-P[Gly(octyl)]L[Aib]LL[Aib][Aib][βAla]-X1), the IC50 in data set [1] was found to be 44 nM; in data set [2] it was 42500 nM; in data set [4] it was 0.2 nM; in data set [5], 44200 nM; in data set [6] it was 0.7 nM. In addition, the IC50 at 70 h in data set [3] turned out to be 592 nM.

Values taken from patent publication EP3345917A1, “ANTIPROTOZOAL COMPOUNDS” (Bacoba AG, priority 2017, dated 2018).
